No end group written: not given here.
Columns and labels:
S. Hominis = format: cell-based
Procedure: (§1) Experiments were conducted in which the full-length epidermicin peptide (51 amino acids, SEQ ID NO:10) was truncated to yield the derivatives shown in FIG. 1 (SEQ ID NOs:11 to 19). NI011-37 (SEQ ID NO:11) Is the region most similar to other peptides in the public domain, NI0138-51 (SEQ ID NO:12) is the region that is most unique with respect to other peptides in the public domain. All other truncations have been carried out by removing residues from the amino-terminal end of the peptide to each lysine residue (K). Lysine is important in antimicrobial peptides as it contributes to the net positive charge, which is thought to have a key role in the mode of action of ‘cationic’ peptides, like NI01 (SEQ ID NO:10).

S. aureus 1195 = format: cell-based
Procedure: as §1

S. epidermidis = format: cell-based
Procedure: as §1

S. saprophyticus = format: cell-based
Procedure: as §1

MRSA = format: cell-based, Staphylococcus aureus
Procedure: as §1

How did the MIC (S. Hominis) turn out when KQIKKLWA [SEQ ID NO:19] was run?
The MIC was over 64 µg/mL.

What about the MIC (S. aureus 1195) of the same sequence?
Its MIC is 16 µg/mL.

And the MIC (S. epidermidis)?
The MIC was over 64 µg/mL.

What about the MIC (S. saprophyticus) of the same sequence?
The MIC was 16 µg/mL.

What about the MIC (MRSA) of the same sequence?
The MIC was over 64 µg/mL.

From patent US10273272B2, “Antimicrobial peptides” (Amprologix Limited, priority 2014, dated 2019)
